These results are taken from patent US10420758B2, “Indolinyl-sulfonamide inhibitors of tankyrase and methods of use thereof” (The Board of Regents of the University of Texas System, priority 2015, dated 2019).

Common to all, as to assay type: biochemical
The target in one test is T1, PARP10 (Homo sapiens, UniProt Q53GL7).
T1 sequence (Q53GL7 1-1025): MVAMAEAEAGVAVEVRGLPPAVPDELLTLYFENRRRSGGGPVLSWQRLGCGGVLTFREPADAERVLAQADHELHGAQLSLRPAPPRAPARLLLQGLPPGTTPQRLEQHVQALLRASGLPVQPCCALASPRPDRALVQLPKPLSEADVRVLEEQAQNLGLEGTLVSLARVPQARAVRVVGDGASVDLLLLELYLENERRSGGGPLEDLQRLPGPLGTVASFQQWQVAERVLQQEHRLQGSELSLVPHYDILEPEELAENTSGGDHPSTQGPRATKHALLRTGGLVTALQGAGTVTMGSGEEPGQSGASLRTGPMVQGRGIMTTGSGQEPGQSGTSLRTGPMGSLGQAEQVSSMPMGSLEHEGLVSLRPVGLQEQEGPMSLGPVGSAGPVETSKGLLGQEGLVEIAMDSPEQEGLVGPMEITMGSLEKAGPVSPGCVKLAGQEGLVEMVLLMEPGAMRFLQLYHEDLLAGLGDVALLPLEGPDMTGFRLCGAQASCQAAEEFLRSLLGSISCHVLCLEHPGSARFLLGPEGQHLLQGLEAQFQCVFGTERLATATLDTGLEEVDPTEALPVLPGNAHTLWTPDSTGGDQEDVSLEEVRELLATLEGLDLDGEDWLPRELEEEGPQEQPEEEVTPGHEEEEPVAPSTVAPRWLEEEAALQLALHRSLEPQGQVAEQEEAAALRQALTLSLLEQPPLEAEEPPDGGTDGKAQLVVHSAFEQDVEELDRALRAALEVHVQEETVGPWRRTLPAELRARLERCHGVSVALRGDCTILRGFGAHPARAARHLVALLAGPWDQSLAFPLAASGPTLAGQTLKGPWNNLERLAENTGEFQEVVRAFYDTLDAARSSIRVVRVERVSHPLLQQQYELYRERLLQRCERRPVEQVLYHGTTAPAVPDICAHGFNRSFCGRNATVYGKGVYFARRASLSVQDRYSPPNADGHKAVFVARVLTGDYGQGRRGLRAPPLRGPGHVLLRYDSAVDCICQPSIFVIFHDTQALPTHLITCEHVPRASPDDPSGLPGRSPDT
As to the kind of experiment: PARP profiling, parsylation of immobilized histone. The protocol: (§1) Performed by BPS Bioscience Inc., San Diego by following the BPS PARP or TNKS assay kit protocols. The enzymatic reactions were conducted in duplicate at room temperature for 1 hr in a 96 well plate coated with histone substrate. […] of reaction buffer (Tris.HCl, pH 8.0) contains NAD^+, biotinylated NAD^+, activated DNA, recombinant PARP enzyme and 10 μM of the test compound. […] After enzymatic reactions, 50 μL of Streptavidin-horseradish peroxidase was added to each well and the plate was incubated at room temperature for an additional 30 min. 100 μL of developer reagents were added to wells and luminescence was measured using a BioTek Synergy™ 2 microplate reader.

The next test concerns the target PARP2 (Homo sapiens, UniProt Q9UGN5). As to the kind of experiment: PARP profiling, parsylation of immobilized histone. The protocol:
as §1

In the next test the target is T2, PARP15 (Homo sapiens, UniProt Q460N3).
T2 sequence (Q460N3 1-678): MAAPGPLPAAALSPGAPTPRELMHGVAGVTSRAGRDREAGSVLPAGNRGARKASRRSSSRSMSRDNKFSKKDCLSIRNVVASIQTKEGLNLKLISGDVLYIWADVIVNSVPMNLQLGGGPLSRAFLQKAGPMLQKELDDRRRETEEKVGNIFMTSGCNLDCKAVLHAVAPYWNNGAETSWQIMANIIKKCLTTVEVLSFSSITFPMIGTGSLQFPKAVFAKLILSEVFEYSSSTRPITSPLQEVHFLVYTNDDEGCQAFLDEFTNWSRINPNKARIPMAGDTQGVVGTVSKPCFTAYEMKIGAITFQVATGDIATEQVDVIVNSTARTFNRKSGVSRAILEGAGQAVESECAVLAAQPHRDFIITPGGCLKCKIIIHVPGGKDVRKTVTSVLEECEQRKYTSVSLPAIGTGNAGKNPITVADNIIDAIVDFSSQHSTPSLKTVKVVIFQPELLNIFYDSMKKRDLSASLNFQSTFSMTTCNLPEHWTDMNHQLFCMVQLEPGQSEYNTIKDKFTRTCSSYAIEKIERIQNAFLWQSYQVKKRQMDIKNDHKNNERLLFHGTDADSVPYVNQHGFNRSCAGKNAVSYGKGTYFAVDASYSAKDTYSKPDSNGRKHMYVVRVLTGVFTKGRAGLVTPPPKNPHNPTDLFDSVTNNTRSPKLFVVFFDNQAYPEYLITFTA
As to the kind of experiment: PARP profiling, parsylation of immobilized histone. As to the method: as §1

Test [1] deals with panel of recombinant PARP proteins. As to the kind of experiment: Overall specificity in panel of recombinant PARP proteins. Conditions: 10 μM, panel covers 70% of the protein family. As to the method: as §1
The higher level of conservation between the NI-binding pocket in PARPs as compared to the AD-binding pocket likely imposes greater challenges to achieving specificity with NI-binding pocket inhibitors (Wahlberg, et al., 2012). […] At the same time, the discovery of structurally distinct chemicals both capable of binding the AD-binding pocket in a similar fashion (IWR-1 and IWR-8) afforded an opportunity to evaluate the strength of this hypothesis.

A word on the inhibition: it is the share of the control response that was lost under treatment. A word on the % inhibition: it is the percentage by which the read-out fell short of the control.

Sequence of PARP2 (Q9UGN5 whole entry): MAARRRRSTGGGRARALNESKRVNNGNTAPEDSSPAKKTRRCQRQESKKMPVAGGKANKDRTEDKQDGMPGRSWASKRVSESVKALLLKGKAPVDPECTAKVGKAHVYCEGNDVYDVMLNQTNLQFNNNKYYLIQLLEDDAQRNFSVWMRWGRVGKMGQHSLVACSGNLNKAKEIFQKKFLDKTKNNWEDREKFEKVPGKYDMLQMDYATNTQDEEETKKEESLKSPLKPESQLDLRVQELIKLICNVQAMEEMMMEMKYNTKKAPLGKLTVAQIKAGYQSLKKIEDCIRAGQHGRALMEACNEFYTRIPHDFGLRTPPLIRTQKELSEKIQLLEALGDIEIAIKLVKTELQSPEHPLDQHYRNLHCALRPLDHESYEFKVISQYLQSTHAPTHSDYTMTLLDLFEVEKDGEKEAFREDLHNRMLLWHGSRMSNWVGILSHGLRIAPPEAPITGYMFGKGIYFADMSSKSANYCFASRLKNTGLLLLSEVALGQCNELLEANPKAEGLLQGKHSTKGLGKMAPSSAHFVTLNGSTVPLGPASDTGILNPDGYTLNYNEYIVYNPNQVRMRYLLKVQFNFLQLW

Regarding `CCN(C(=O)C1CCN(S(=O)(=O)c2cc3c(cc2Br)CCN3C(C)=O)CC1)c1cccc(C)c1` [IWR-8], the results for the inhibition at 10 µM at PARP10 (IWR compounds 10 μM), on PARP2 (IWR compounds 10 μM) and at PARP15 (IWR compounds 10 μM) were 9%, 3% and 0%, respectively. Besides, the “specificity/selectivity across PARP panel” value in test [1] is “highly specific”.

Take `O=C(c1cc(Cc2n[nH]c(=O)c3ccccc23)ccc1F)N1CCN(C(=O)C2CC2)CC1` [Olaparib]: the figures for the inhibition at 0.02 µM on PARP10, on PARP2 and on PARP15 were 99%, 100% and 82%, respectively.

Consider `O=C(Nc1cccc2cccnc12)c1ccc(N2C(=O)[C@@H]3[C@H](C2=O)[C@@H]2C=C[C@H]3C2)cc1` [IWR-1], for which the “% inhibition” value is on record as 18% at PARP10 (IWR compounds 10 μM), 5% at PARP2 (IWR compounds 10 μM) and 0% on PARP15 (IWR compounds 10 μM). Moreover, in test [1], the “specificity/selectivity across PARP panel” value is listed as “highly specific”.
